Data from patent US20240381872A1, “SUBSTITUTED 2,3-DIHYDRO[1,3]THIAZOLO[4,5-B]PYRIDINES, SALTS THEREOF AND THEIR USE AS HERBICIDALLY ACTIVE SUBSTANCES” (BAYER AKTIENGESELLSCHAFT, priority 2021, published 2024).

How the values were obtained:
Type in all cases: in vivo
Veronica persica (VERPE) [1] = test: Herbicidal pre-emergence action, section C (Table C10); conditions: visual grading after ca. 3 weeks
Summary of the method: (§1)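 Weed and crop seeds sown in sandy loam, covered with soil, then WP or EC formulations sprayed onto the soil surface as aqueous suspension/emulsion with 0.5% additive at 600 l water/ha. Kept in greenhouse under optimum conditions; damage graded visually after ca. 3 weeks versus untreated controls (0% = as control, 100% = plants dead).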

Stellaria media (STEME) = test: Herbicidal pre-emergence action, section A (Table A9)
Summary of the method: (§2)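 Visual scoring at approximately 3 weeks, relative to untreated pots, gave percent effect after compounds in WP or EC form were sprayed onto covering soil of sown seeds (sandy loam) in water with 0.5% additive at 600 l/ha, then kept in greenhouse.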

[2] = tested on: Polygonum convolvulus (POLCO); test: Herbicidal pre-emergence action, section C (Table C7); conditions: visual grading after ca. 3 weeks
Summary of the method: as §1

Veronica persica (VERPE) [3] = test: Herbicidal post-emergence action, section E (Table E9); conditions: visual assessment ca. 3 weeks after spraying
Summary of the method: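 Greenhouse-grown plants in sandy loam were sprayed post-emergence at the single-leaf stage, 2 to 3 weeks after sowing. Compounds were applied as WP or EC in water with 0.5% additive at 600 l water/ha. After ca. 3 weeks, damage was scored visually versus untreated controls (0% = as control, 100% = dead).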

Lolium rigidum (LOLRI) = test: Herbicidal pre-emergence action, section C (Table C5); conditions: visual grading after ca. 3 weeks
Summary of the method: as §1

Poa annua (POAAN) = test: Herbicidal post-emergence action, section B (Table B7); conditions: visual rating about 3 weeks after treatment vs untreated controls
Summary of the method: (§3)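 In this greenhouse assay, compounds in WP or EC form were applied post-emergence with 0.5% additive at a water rate of 600 liters per hectare. Treatment took place at the one-leaf stage, and injury was rated visually about 3 weeks later against untreated plants.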

Setaria viridis (SETVI) = test: Herbicidal post-emergence action, section B (Table B8); conditions: application rate 1280 g/ha; visual rating about 3 weeks after treatment vs untreated controls
Summary of the method: as §3

Kochia scoparia (KCHSC) = test: Herbicidal pre-emergence action, section A (Table A4); conditions: visual grading after ca. 3 weeks vs untreated controls
Summary of the method: as §2

Veronica persica (VERPE) [4] = test: Herbicidal post-emergence action, section B (Table B10); conditions: visual rating about 3 weeks after treatment vs untreated controls
Summary of the method: as §3

[5] = tested on: Echinochloa crus-galli (ECHCG); test: Herbicidal pre-emergence action, section A (Table A3); conditions: application rate 320 g/ha; visual grading after ca. 3 weeks vs untreated controls
Summary of the method: as §2

[6] = tested on: Echinochloa crus-galli (ECHCG); test: Herbicidal pre-emergence action, section C (Table C3); conditions: visual grading after ca. 3 weeks vs untreated controls
Summary of the method: as §1

[7] = tested on: Alopecurus myosuroides (ALOMY); test: Herbicidal pre-emergence action, section A (Table A2); conditions: visual grading after ca. 3 weeks vs untreated controls
Summary of the method: as §2

Veronica persica (VERPE) [8] = test: Herbicidal pre-emergence action, section A (Table A10)
Summary of the method: as §2

[9] = tested on: Echinochloa crus-galli (ECHCG); test: Herbicidal post-emergence action, section E (Table E5); conditions: visual assessment ca. 3 weeks after spraying
Excerpt: Seeds of mono- and dicotyledonous weed plants and crop plants were sown, in plastic or organic planting pots, in sandy loam, covered with soil and grown in a greenhouse under controlled growth conditions. 2 to 3 weeks after sowing, the test plants were sprayed in the single-leaf stage. The compounds according to the invention, formulated in form of wettable powders (WP) or as emulsifiable concentrates (EC), were sprayed onto the green plant parts as aqueous suspension or emulsion, with the addition of 0.5% of an additive, at an application rate of 600 l of water/ha (converted). The test plants were placed in the greenhouse for ca. 3 weeks under optimum growth conditions, and then the effect of the preparations was assessed visually in comparison with untreated controls (herbicidal effect in percent (%): 100% effect=plants have died off, 0% effect=as control plants).

COC(=O)CCC(=O)N1CSc2cc(C)c(-c3ccccc3F)nc21 [Example I-010]
90%: pre-emergence activity against VERPE in % (Veronica persica (VERPE) [1]; application rate 320 g/ha) | post-emergence activity against POAAN in % (Poa annua (POAAN); application rate 1280 g/ha) | post-emergence activity against SETVI in % (Setaria viridis (SETVI)) | post-emergence activity against VERPE in % (Veronica persica (VERPE) [4]; application rate 320 g/ha) | pre-emergence activity against VERPE in % (Veronica persica (VERPE) [8]; application rate 1280 g/ha) | post-emergence activity against ECHCG in % ([9]; application rate 320 g/ha)
80%: pre-emergence activity against POLCO in % ([2]; application rate 80 g/ha) | post-emergence activity against VERPE in % (Veronica persica (VERPE) [3]; application rate 320 g/ha)
100%: pre-emergence activity against STEME in % (Stellaria media (STEME); application rate 320 g/ha) | pre-emergence activity against LOLRI in % (Lolium rigidum (LOLRI); application rate 320 g/ha) | pre-emergence activity against KCHSC in % (Kochia scoparia (KCHSC); application rate 1280 g/ha) | pre-emergence activity against ECHCG in % [5] | pre-emergence activity against ECHCG in % ([6]; application rate 80 g/ha) | pre-emergence activity against ALOMY in % ([7]; application rate 1280 g/ha)

Cc1cc2c(nc1-c1ccccc1F)N(C(=O)C1(C)CC(Cl)=NO1)CS2 (stereo not drawn) [Example I-083]
80%: pre-emergence activity against VERPE in % (Veronica persica (VERPE) [1]; application rate 80 g/ha) | pre-emergence activity against LOLRI in % (Lolium rigidum (LOLRI); application rate 320 g/ha) | post-emergence activity against ECHCG in % ([9]; application rate 80 g/ha)
100%: pre-emergence activity against ECHCG in % [5] | pre-emergence activity against ECHCG in % ([6]; application rate 80 g/ha) | pre-emergence activity against ALOMY in % ([7]; application rate 320 g/ha)
90%: pre-emergence activity against STEME in % (Stellaria media (STEME); application rate 320 g/ha) | pre-emergence activity against POLCO in % ([2]; application rate 320 g/ha) | post-emergence activity against VERPE in % (Veronica persica (VERPE) [3]; application rate 80 g/ha) | post-emergence activity against POAAN in % (Poa annua (POAAN); application rate 320 g/ha) | post-emergence activity against SETVI in % (Setaria viridis (SETVI)) | pre-emergence activity against KCHSC in % (Kochia scoparia (KCHSC); application rate 320 g/ha) | post-emergence activity against VERPE in % (Veronica persica (VERPE) [4]; application rate 320 g/ha) | pre-emergence activity against VERPE in % (Veronica persica (VERPE) [8]; application rate 1280 g/ha)

Cc1cc2c(nc1-c1ccccc1F)N(S(=O)(=O)Cc1ccc(F)cc1)CS2 [Example I-122]
100%: pre-emergence activity against LOLRI in % (Lolium rigidum (LOLRI); application rate 320 g/ha) | pre-emergence activity against ECHCG in % [5] | pre-emergence activity against ECHCG in % ([6]; application rate 320 g/ha) | pre-emergence activity against ALOMY in % ([7]; application rate 1280 g/ha)
80%: pre-emergence activity against VERPE in % (Veronica persica (VERPE) [1]; application rate 320 g/ha) | pre-emergence activity against POLCO in % ([2]; application rate 80 g/ha)
90%: pre-emergence activity against STEME in % (Stellaria media (STEME); application rate 320 g/ha) | post-emergence activity against VERPE in % (Veronica persica (VERPE) [3]; application rate 320 g/ha) | post-emergence activity against POAAN in % (Poa annua (POAAN); application rate 320 g/ha) | post-emergence activity against SETVI in % (Setaria viridis (SETVI)) | pre-emergence activity against KCHSC in % (Kochia scoparia (KCHSC); application rate 320 g/ha) | post-emergence activity against VERPE in % (Veronica persica (VERPE) [4]; application rate 320 g/ha) | pre-emergence activity against VERPE in % (Veronica persica (VERPE) [8]; application rate 1280 g/ha) | post-emergence activity against ECHCG in % ([9]; application rate 320 g/ha)

COCC1(C(=O)N2CSc3cc(C)c(-c4ccccc4F)nc32)CC(Cl)=NO1 (stereo not drawn) [Example I-128]
80%: pre-emergence activity against VERPE in % (Veronica persica (VERPE) [1]; application rate 80 g/ha) | post-emergence activity against VERPE in % (Veronica persica (VERPE) [3]; application rate 80 g/ha)
90%: pre-emergence activity against STEME in % (Stellaria media (STEME); application rate 320 g/ha) | pre-emergence activity against POLCO in % ([2]; application rate 320 g/ha) | post-emergence activity against POAAN in % (Poa annua (POAAN); application rate 1280 g/ha) | post-emergence activity against SETVI in % (Setaria viridis (SETVI)) | pre-emergence activity against KCHSC in % (Kochia scoparia (KCHSC); application rate 320 g/ha) | post-emergence activity against VERPE in % (Veronica persica (VERPE) [4]; application rate 320 g/ha) | pre-emergence activity against VERPE in % (Veronica persica (VERPE) [8]; application rate 320 g/ha) | post-emergence activity against ECHCG in % ([9]; application rate 320 g/ha)
100%: pre-emergence activity against LOLRI in % (Lolium rigidum (LOLRI); application rate 80 g/ha) | pre-emergence activity against ECHCG in % [5] | pre-emergence activity against ECHCG in % ([6]; application rate 80 g/ha) | pre-emergence activity against ALOMY in % ([7]; application rate 320 g/ha)

Cc1ccccc1-c1nc2c(cc1C)SCN2C(=O)C1(C)CC(Cl)=NO1 (stereo not drawn) [Example I-137]
100%: pre-emergence activity against STEME in % (Stellaria media (STEME); application rate 1280 g/ha) | pre-emergence activity against LOLRI in % (Lolium rigidum (LOLRI); application rate 320 g/ha) | pre-emergence activity against ECHCG in % [5] | pre-emergence activity against ECHCG in % ([6]; application rate 80 g/ha)
80%: pre-emergence activity against VERPE in % (Veronica persica (VERPE) [1]; application rate 80 g/ha) | pre-emergence activity against POLCO in % ([2]; application rate 320 g/ha) | post-emergence activity against VERPE in % (Veronica persica (VERPE) [3]; application rate 320 g/ha)
90%: post-emergence activity against POAAN in % (Poa annua (POAAN); application rate 320 g/ha) | post-emergence activity against SETVI in % (Setaria viridis (SETVI)) | pre-emergence activity against KCHSC in % (Kochia scoparia (KCHSC); application rate 320 g/ha) | post-emergence activity against VERPE in % (Veronica persica (VERPE) [4]; application rate 1280 g/ha) | pre-emergence activity against ALOMY in % ([7]; application rate 320 g/ha) | pre-emergence activity against VERPE in % (Veronica persica (VERPE) [8]; application rate 320 g/ha) | post-emergence activity against ECHCG in % ([9]; application rate 320 g/ha)

CC1(C(=O)N2CSc3cc(Br)c(-c4ccccc4)nc32)CC(Cl)=NO1 (stereo not drawn) [Example I-139]
80%: pre-emergence activity against VERPE in % (Veronica persica (VERPE) [1]; application rate 320 g/ha) | pre-emergence activity against POLCO in % ([2]; application rate 320 g/ha) | post-emergence activity against VERPE in % (Veronica persica (VERPE) [3]; application rate 320 g/ha) | pre-emergence activity against LOLRI in % (Lolium rigidum (LOLRI); application rate 320 g/ha)
100%: pre-emergence activity against ECHCG in % [5] | pre-emergence activity against ECHCG in % ([6]; application rate 320 g/ha)
90%: pre-emergence activity against STEME in % (Stellaria media (STEME); application rate 320 g/ha) | post-emergence activity against POAAN in % (Poa annua (POAAN); application rate 320 g/ha) | post-emergence activity against SETVI in % (Setaria viridis (SETVI)) | pre-emergence activity against KCHSC in % (Kochia scoparia (KCHSC); application rate 1280 g/ha) | post-emergence activity against VERPE in % (Veronica persica (VERPE) [4]; application rate 1280 g/ha) | pre-emergence activity against ALOMY in % ([7]; application rate 1280 g/ha) | pre-emergence activity against VERPE in % (Veronica persica (VERPE) [8]; application rate 1280 g/ha) | post-emergence activity against ECHCG in % ([9]; application rate 320 g/ha)
